Measurements reported in patent US20060156421A1, “High throughput screening methods for anti-metastatic compounds” (priority 2004, published 2006).

Experiments:
Drosophila = Drosophila melanogaster, in vivo
Excerpt: Lethality of candidate compounds for Drosophila can be used to detect and quantify toxicity of candidate compounds. Well known standard statistical methods are used to help distinguish chance results from real toxic effects. Lethality is quantified, for example, by determining the number of Drosophila that fail to develop successfully to adulthood and applying suitable statistical analyses to determine statistical significance. Lethal dose evaluations can be used to quantify the extent of toxicity. […] In another exemplary example, the emergence of most Drosophila adults within a microwell indicates a lowered probability that an introduced compound is toxic.
FIG. 3 illustrates in part the results of screening compound ZD6474 according to the screening methods of the present invention. […] Therefore, the estimated therapeutic index (ratio of concentrations that are toxic to Drosophila to concentrations that reduce the retinal phenotype is […].

dRet = test: Drosophila screening: rough eye phenotype of GMR-dRet flies fed compound in microtiter wells; assay type: in vivo, Drosophila melanogaster; conditions: compound in growth medium
Procedure: (§1) Accordingly, methods, related apparatus and kits for high throughput screening assays involve the preparation of microtiter plates each with multiple wells, wherein each well initially contains one or more Drosophila embryos with a transgene and an amount of a Drosophila growth medium. The embryos develop while feeding on the growth medium. The precise age of the embryos at the time they are plated matters less than the fact that they are all about the same age, to permit accurate evaluation of the possible effects of the candidate compound on larval and pupal development.
To prepare the microtiter plates, for example, 96-well microtiter plates are used, such as those commonly commercially available and typically used for various laboratory assay techniques, including other high throughput drug assay techniques. Into each well is pipetted 50-100 μl of standard Drosophila growth medium. An exemplary range of about 50 to about 100 μl is a balance between (i) providing sufficient food so as not to place undue feeding stress on the developing flies and (ii) providing sufficient air space for the third larval instars to find sufficient wall space to pupate and for minimal stress on the developing larvae and pupae. Any one of several standard Drosophila growth medium recipes as known in the art of breeding Drosophila for research can be used. […]

Ret = conditions: previously tested, Carlomagno et al., 2002; cited from earlier work
dRet^MEN2B = test: Drosophila screening: rough eye phenotype of GMR-dRet^MEN2B flies fed compound in microtiter wells; assay type: in vivo, Drosophila melanogaster
Procedure: as §1
To prepare the microtiter plates, for example, 96-well microtiter plates are used, such as those commonly commercially available and typically used for various laboratory assay techniques, including other high throughput drug assay techniques. Into each well is pipetted 50-100 μl of standard Drosophila growth medium. An exemplary range of about 50 to about 100 μl is a balance between (i) providing sufficient food so as not to place undue feeding stress on the developing flies and (ii) providing sufficient air space for the third larval instars to find sufficient wall space to pupate and for minimal stress on the developing larvae and pupae. Any one of several standard Drosophila growth medium recipes as known in the art of breeding Drosophila for research can be used.
In an exemplary embodiment, a candidate compound, or cocktail of more than one compound, that has been selected for screening is prepared in EtOH or DMSO/aqueous solution. In an exemplary embodiment, EtOH is used. Although DMSO can be used, it can be toxic if it reaches final concentrations of more than 0.3% of the growth medium. The compound in solution is added and allowed to diffuse through the growth medium for an initial period of about 16 to about 24 hours. Alternatively, the compound in solution is mixed with the food by pipetting, by shaking, or by sonicating. […]

VEGF-class receptors = conditions: literature citations; cited from earlier work

COc1cc2c(Nc3ccc(Br)cc3F)ncnc2cc1OCC1CCN(C)CC1 [ZD6474]
concentrations at which toxicity was observed (Drosophila): ≥ 2500 µM
estimated therapeutic index (ratio of concentrations toxic to Drosophila to concentrations that reduce the retinal phenotype) (Drosophila): 31
inhibition of severity of the rough eye phenotype of dRet (dRet): strongly inhibit
effect on Ret activity in a tissue culture model (Ret): reduce Ret activity
inhibition of severity of the rough eye phenotype of dRet^MEN2B (dRet^MEN2B; Drosophila eye, compound in growth medium): strongly inhibit
rescue of the dRet^MEN2B phenotype (dRet^MEN2B; FIG. 3 panels, varying concentration): concentration-dependent
doses at which at least partial rescue was observed (dRet^MEN2B; retinal phenotype, lowest effective concentration): ≥ 0.04 mM
efficacy for VEGF-class receptors (VEGF-class receptors): some efficacy
